Assay results taken from patent US8697730B2, “5-lipoxygenase activating protein (FLAP) inhibitor” (Panmira Pharmaceuticals, LLC, priority 2007, dated 2014).
pIC50: −log10 of the molar value. Where two headings read alike, the source gives them in different places.

What was measured:
urinary LTE4 production = test: Phase 1 study, urinary LTE4; assay type: in vivo, human
Experimental: (§1) Pharmacodynamics: Whole blood ionophore-stimulated leukotriene LTB4 and urinary LTE4 production are assayed by ELISA and mass spectrometry, respectively.
(§2) Obtain pre-dose fasting blood samples for hematology determinations. Obtain pre-dose fasting blood samples for serum chemistry determinations. Obtain pre-dose blood samples (5 mL EDTA and 4 mL heparinized) for baseline PK and LTB4. Collect ‘spot’ urine prior to study drug administration for baseline (pre-dose) LTE4. Administer study drug. […] Collect blood samples (2 mL heparinized) for LTB4 at 0.5, 1, 2, 3, 4, 6, 8, and 12 hours. Collect urine for LTE4 for the following separate intervals: 0-3, 3-6, 6-9, and 9-12 hours. For twice daily dosing group (if conducted): administer study drug 12 hours±30 minutes after prior dose, preceded by ≧2 hours fast.
(§3) Obtain pre-dose fasting blood samples for hematology determinations. Obtain pre-dose fasting blood samples for serum chemistry determinations. […] Collect blood samples (2 mL heparinized) for LTB4 at 24 hours after the first study drug administration; 4 mL blood will be collected at this time point in the Single Dose Phase. Collect ‘spot’ urine sample for LTE4 at 24 and 36 hours after first study drug administration.
(§4) Obtain pre-dose blood samples (5 mL EDTA and 2 mL heparinized) for PK and LTB4. Collect pre-dose urine for LTE4. Administer study drug (last dose of drug). […] Collect blood samples (2 mL heparinized) for LTB4 at 0.5, 1, 2, 3, 4, 6, 8, and 12 hours. Collect urine for LTE4 for the following separate intervals: 0-3, 3-6, 6-9, and 9-12 hours after study drug administration.
(§5) Record vital signs 24 hours after Day 11 study drug administration. […] Collect blood sample (4 mL heparinized) for LTB4 at 24 hours after Day 11 study drug administration. Collect ‘spot’ urine sample for LTE4 at 24 hours after Day 11 study drug administration.
(§6) Whole blood ionophore-stimulated leukotriene LTB4 and urinary LTE4 production were assayed by ELISA and mass spectrometry, respectively.

CYP3A4 = CYP3A4 (Homo sapiens, UniProt P08684); test: biochemical
[1] = Regional dosing study in rat; set-up: species or system Male Sprague-Dawley rats; conditions: in vivo
[2] = test system: whole blood ionophore-stimulated leukotriene LTB4; test: Phase 1 study, whole blood ionophore-stimulated LTB4; assay type: in vivo, human
Experimental: as §1, §2, §3, §4, §5, §6

in vivo [3] = conditions: male, Sprague-Dawley, rat, po
[4] = Solubility in organic solvents; assay type: physicochemical; conditions: for solubility: 25 °C, Form C, read-out: Solubility, mg/mL at 25° C.
in vivo [5] = test: in vivo; set-up: species or system female Beagle dogs; conditions: dog
Experimental: For comparison, an IV formulation was also tested. Table 18 summarizes the results of the experiments of administration of the various oral formulations to female beagle dogs.

CYP1A2 = biological target: T1, CYP1A2 (Homo sapiens, UniProt P05177); test: biochemical
T1 sequence (P05177 1-516): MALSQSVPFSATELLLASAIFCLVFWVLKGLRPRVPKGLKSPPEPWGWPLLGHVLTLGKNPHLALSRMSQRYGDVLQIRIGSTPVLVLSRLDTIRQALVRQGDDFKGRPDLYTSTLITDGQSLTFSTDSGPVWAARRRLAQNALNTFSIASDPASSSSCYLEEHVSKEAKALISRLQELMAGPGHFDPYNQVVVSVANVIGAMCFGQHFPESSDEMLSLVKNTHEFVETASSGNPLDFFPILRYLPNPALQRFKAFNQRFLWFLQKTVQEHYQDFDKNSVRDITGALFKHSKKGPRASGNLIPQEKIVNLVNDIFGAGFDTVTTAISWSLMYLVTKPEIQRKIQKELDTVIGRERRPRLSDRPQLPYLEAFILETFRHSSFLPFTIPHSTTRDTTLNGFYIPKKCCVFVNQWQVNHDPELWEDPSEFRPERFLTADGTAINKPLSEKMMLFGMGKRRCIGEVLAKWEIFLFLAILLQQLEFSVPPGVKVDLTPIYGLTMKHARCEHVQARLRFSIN

CYP2C19 = CYP2C19 (Homo sapiens, UniProt P33261); test: biochemical
CYP2D6 = CYP2D6 (Homo sapiens, UniProt P10635); test: biochemical
[6] = multiple dose, 450 mg daily, Day 1
[7] = multiple dose, 450 mg daily, Day 11
[8] = multiple dose, 1000 mg daily, Day 1
[9] = multiple dose, 1000 mg daily, Day 11
[10] = single dose 50 mg, oral solution
[11] = single dose 150 mg, oral solution
[12] = single dose 300 mg, oral solution
[13] = single dose 600 mg, oral solution
[14] = single dose 1000 mg, oral solution

Sequence of CYP3A4 (P08684 whole entry): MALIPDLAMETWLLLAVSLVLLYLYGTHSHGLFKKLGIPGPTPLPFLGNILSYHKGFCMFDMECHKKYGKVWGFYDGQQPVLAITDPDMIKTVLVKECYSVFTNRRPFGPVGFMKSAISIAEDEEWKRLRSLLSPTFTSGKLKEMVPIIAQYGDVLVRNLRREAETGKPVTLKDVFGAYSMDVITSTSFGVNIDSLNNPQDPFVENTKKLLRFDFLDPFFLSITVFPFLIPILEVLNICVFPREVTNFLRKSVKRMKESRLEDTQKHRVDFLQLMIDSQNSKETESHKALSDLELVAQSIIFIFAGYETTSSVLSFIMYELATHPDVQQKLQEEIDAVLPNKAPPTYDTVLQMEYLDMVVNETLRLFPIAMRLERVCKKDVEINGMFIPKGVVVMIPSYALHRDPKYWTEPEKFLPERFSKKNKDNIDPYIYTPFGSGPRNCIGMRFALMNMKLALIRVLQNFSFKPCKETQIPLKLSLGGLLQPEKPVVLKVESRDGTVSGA
Sequence of CYP2C19 (P33261 whole entry): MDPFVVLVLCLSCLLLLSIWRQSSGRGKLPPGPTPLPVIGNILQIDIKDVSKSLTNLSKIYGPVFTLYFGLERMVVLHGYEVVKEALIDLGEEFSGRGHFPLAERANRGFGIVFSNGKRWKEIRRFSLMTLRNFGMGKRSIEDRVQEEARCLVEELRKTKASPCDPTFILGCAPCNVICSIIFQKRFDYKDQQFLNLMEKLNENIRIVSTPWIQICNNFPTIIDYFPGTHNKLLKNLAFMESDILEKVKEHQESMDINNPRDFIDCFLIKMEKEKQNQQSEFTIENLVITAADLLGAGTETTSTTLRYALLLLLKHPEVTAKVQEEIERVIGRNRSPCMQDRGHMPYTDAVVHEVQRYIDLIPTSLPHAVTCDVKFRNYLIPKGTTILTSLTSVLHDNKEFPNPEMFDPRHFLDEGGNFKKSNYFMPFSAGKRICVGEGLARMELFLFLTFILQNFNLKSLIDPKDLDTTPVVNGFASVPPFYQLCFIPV
Sequence of CYP2D6 (P10635 whole entry): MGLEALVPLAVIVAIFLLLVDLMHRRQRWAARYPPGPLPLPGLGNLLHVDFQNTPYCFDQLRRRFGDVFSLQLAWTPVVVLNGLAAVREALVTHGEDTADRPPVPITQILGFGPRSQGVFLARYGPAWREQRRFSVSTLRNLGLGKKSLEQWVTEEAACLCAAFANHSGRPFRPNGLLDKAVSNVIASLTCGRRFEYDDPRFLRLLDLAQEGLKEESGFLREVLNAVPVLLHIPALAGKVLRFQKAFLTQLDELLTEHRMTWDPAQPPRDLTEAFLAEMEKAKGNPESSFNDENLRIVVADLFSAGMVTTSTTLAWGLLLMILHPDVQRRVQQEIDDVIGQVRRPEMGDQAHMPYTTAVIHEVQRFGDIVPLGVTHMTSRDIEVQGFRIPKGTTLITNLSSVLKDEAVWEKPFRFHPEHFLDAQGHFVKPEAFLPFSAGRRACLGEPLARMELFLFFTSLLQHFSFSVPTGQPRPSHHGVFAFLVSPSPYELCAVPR

pIC50 (CYP3A4): < 4.30
Tmax (in vivo [3]): ≥ 2 h
solubility ([4]; aqueous with cosolvent or surfactant or cyclodextrin, 0.5% Methylcellulose/water): 9.3 mg/mL
solubility ([4]; organic solvent or mixture, Acetonitrile): 0.2 mg/mL
solubility ([4]; organic solvent or mixture, Ethanol): 17.1 mg/mL
solubility ([4]; organic solvent or mixture, Isopropanol): 1.1 mg/mL
solubility ([4]; organic solvent or mixture, Methanol): > 50 mg/mL
solubility ([4]; organic solvent or mixture, Propylene glycol): 13.4 mg/mL
solubility in words ([4]; acetonitrile): sparingly soluble
solubility in words ([4]; isopropanol): sparingly soluble
solubility in words ([4]; methanol): very soluble
AUCdose-adjusted (in vivo [5]; iv, 2 mg/kg): 6.0
AUC(0-inf) (in vivo [5]; female, Beagle, iv, 2 mg/kg): 11900 ng·h/mL
CLp (in vivo [5]; female, Beagle, iv, 2 mg/kg): 2.9 mL/min/kg
Cmax (in vivo [5]; female, Beagle, iv, 2 mg/kg): 3200 ng/mL
Tmax (in vivo [5]; female, Beagle, iv, 2 mg/kg): 0.017 h
Vd (in vivo [5]; female, Beagle, iv, 2 mg/kg): 0.4 L/kg
bioavailability (in vivo [5]; female, Beagle, iv, 2 mg/kg): 100%
half-life (in vivo [5]; female, Beagle, iv, 2 mg/kg): 7.7 h
Tmax (in vivo [5]; female, Beagle, po, 5 mg/kg): 1.7 h
pIC50 (CYP1A2): < 4.30
pIC50 (CYP2C19): 4.66
pIC50 (CYP2D6): < 4.30
SMILES: COc1ccc(-c2ccc(Cn3c(CC(C)(C)C(=O)O)c(SC(C)(C)C)c4cc(OCc5ccccn5)ccc43)cc2)cn1 [sodium 3-[5-(pyridin-2-ylmethoxy)-3-(2-methyl-2-propylthio)-1-[4-(2-methoxypyridin-5-yl)benzyl]-indol-2-yl]-2,2-dimethyl-propionate]
LTE4 level at t = 24 hrs. (% of baseline) (urinary LTE4 production; [6]): 8.2 ± 4.3 % of baseline
LTE4 level at t = 24 hrs. (% of baseline) (urinary LTE4 production; [7]): 2.8 ± 0.9 % of baseline
LTE4 level at t = 24 hrs. (% of baseline) (urinary LTE4 production; [8]): 2.5 ± 0.6 % of baseline
LTE4 level at t = 24 hrs. (% of baseline) (urinary LTE4 production; [9]): 2.3 ± 0.6 % of baseline
LTE4 level at t = 24 hrs. (% of baseline) (urinary LTE4 production; [10]): 77 ± 26 % of baseline
LTE4 level at t = 24 hrs. (% of baseline) (urinary LTE4 production; [11]): 23 ± 10 % of baseline
LTE4 level at t = 24 hrs. (% of baseline) (urinary LTE4 production; [12]): 10 ± 5 % of baseline
LTE4 level at t = 24 hrs. (% of baseline) (urinary LTE4 production; [13]): 8 ± 3 % of baseline
LTE4 level at t = 24 hrs. (% of baseline) (urinary LTE4 production; [14]): 3 ± 0 % of baseline
site of absorption in words [1]: mainly absorbed in the upper gastrointestinal tract
LTB4 level at t = 24 hrs. (% of baseline) [2, 6]: 24 ± 6.7 % of baseline
LTB4 level at t = 24 hrs. (% of baseline) [2, 7]: 26 ± 7.4 % of baseline
LTB4 level at t = 24 hrs. (% of baseline) [2, 8]: 2.7 ± 1.1 % of baseline
LTB4 level at t = 24 hrs. (% of baseline) [2, 9]: 1.0 ± 0.6 % of baseline
LTB4 level at t = 24 hrs. (% of baseline) [2, 10]: 75 ± 15 % of baseline
LTB4 level at t = 24 hrs. (% of baseline) [2, 11]: 58 ± 18 % of baseline
LTB4 level at t = 24 hrs. (% of baseline) [2, 12]: 36 ± 6.5 % of baseline
LTB4 level at t = 24 hrs. (% of baseline) [2, 13]: 25 ± 8.7 % of baseline
LTB4 level at t = 24 hrs. (% of baseline) [2, 14]: 23 ± 12 % of baseline
